What follows are molecules tested against T1, Adenosine receptor A1 (Bos taurus, UniProt P28190).
T1 sequence (P28190 whole entry): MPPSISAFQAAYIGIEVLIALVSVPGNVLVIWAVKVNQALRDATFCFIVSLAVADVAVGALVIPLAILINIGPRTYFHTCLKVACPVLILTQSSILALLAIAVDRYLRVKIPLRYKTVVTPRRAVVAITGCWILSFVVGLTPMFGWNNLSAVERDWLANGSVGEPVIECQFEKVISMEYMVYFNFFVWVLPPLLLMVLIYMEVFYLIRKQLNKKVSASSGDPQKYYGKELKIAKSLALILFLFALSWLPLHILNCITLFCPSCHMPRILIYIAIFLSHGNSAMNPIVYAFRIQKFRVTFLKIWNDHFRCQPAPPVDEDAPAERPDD

Compound | Ki [µM]
Cn1c(=O)c2c(ncn2C)n(C)c1=O | > 10
Cn1c(=O)[nH]c2ncn(C)c2c1=O [1,7-dimethylxanthine] | > 10
CC(=O)CCCCn1c(=O)c2c(ncn2C)n(C)c1=O [1-(5-Oxohexyl)theobromine (pentoxifylline)] | > 10
CC(C)Cn1c(=O)n(C)c(=O)c2[nH]cnc21 [1-methyl-3-(2-methylpropyl)-2,3,6,7-tetrahydro-1H-purine-2,6-dione] | 2.5
CCCn1c(=O)[nH]c(=O)c2[nH]cnc21 [3-Propylxanthine (enprofylline)] | > 10
CC(O)Cn1cnc2c1c(=O)n(C)c(=O)n2C (stereo unspecified) [7-(2-Hydroxy-propyl)-1,3-dimethyl-3,7-dihydro-purine-2,6-dione(Proxyphylline)] | > 10
CC(=O)Oc1ccc(-c2nc3c([nH]2)c(=O)n(C)c(=O)n3C)cc1 [8-(4-Acetoxyphenyl)theophylline] | 0.023
Cn1c(=O)c2nc(-c3ccc(O)cc3)[nH]c2n(C)c1=O [8-(4-Hydroxy-phenyl)-1,3-dimethyl-3,7-dihydro-purine-2,6-dione] | 0.0034
CCCn1c(=O)c2nc(-c3ccc(O)cc3)[nH]c2n(CCC)c1=O [8-(4-Hydroxy-phenyl)-1,3-dipropyl-3,9-dihydro-purine-2,6-dione] | 0.0032
Cn1c(=O)c2c(ncn2CCO)n(C)c1=O [BETA-HYDROXYETHYL THEOPHYLLINE] | > 10
Cn1c(=O)c2c(ncn2C[C@H](O)CO)n(C)c1=O [Diprophylline] | > 10
O=c1[nH]c(=O)c2[nH]cnc2[nH]1 [NSC_1188] | > 10
CCN(CC)CCn1cnc2c1c(=O)n(C)c(=O)n2C [NSC_28329] | > 10
CC(O)Cn1c(=O)c2c(ncn2C)n(C)c1=O (stereo unspecified) [NSC_66120] | > 10
CCCn1c(=O)c2[nH]c(-c3ccc(Cl)cc3N)nc2n(CCC)c1=O [NSC_92411] | 0.0003
Cn1cnc2c1c(=O)[nH]c(=O)n2C [theobromine] | > 10
